In patent publication US7566712B2, “Biaryl piperazinyl-pyridine analogues” (Neurogen Corporation, priority 2003, dated 2009):
Each block holds one molecule with its values, some of them ahead of it.

Molecular target: T1, human capsaicin receptor (Homo sapiens, UniProt Q8NER1)
T1 construct: pBK-CMV expression construct encoding the full length human capsaicin receptor; expressed in transfected cells
Assay: Calcium mobilization assay, determination of antagonist activity (Example 6)
Assay type: cell-based
Details: Table II
Method in brief: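 HEK293 clonal lines stably expressing full-length human capsaicin receptor, loaded with Fluo-3 AM in KRH buffer pH 7.4, 1–2 h at 37 °C. Compounds (1–5 μM final) preincubated 0.5–6 h at room temperature, then capsaicin at its EC50 added. FLIPR/Fluoroskan calcium signal; IC50 as 50% decrease of capsaicin response.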

[1] = determined as described in Example 6 (antagonist activity), "*" = 1 micromolar or less
[2] = determined as described in Example 6 (calcium mobilization, antagonist activity)
[3] = IC50 determined as described in Example 6
[4] = IC50 determined as described in Example 6 (antagonist activity, calcium mobilization)

T1 sequence (Q8NER1 whole entry): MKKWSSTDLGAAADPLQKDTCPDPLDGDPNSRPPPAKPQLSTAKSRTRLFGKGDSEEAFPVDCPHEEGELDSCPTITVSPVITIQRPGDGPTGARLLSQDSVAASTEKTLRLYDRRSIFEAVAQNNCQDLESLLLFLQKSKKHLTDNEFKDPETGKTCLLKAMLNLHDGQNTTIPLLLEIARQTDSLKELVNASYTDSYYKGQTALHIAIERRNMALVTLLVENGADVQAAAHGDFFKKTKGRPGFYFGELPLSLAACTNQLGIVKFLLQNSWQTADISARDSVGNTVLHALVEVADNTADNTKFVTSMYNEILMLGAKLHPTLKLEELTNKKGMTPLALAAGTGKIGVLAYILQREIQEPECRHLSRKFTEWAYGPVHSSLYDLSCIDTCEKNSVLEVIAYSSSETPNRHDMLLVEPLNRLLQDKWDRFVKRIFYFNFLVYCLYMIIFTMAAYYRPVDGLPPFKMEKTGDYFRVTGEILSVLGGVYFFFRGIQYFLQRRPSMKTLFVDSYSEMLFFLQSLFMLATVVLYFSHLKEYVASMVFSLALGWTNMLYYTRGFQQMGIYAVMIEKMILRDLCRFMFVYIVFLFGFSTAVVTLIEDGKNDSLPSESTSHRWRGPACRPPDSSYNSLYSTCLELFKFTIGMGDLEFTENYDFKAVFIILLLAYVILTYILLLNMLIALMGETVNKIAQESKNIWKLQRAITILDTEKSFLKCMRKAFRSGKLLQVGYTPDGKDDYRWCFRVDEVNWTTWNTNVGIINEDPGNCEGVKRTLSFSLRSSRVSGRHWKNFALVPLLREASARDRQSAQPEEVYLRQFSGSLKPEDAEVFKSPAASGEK

IC50 [1]: ≤ 1000 nM
Compound: CC1CCCN1c1nc(-c2cccc(C#N)c2)cc(N2CCN(c3ncccc3Cl)C[C@H]2C)n1 (stereo in doubt) [Example 869, 3-[6-[4-(3-chloropyridin-2-yl)-2-methylpiperazin-1-yl]-2-(2-methylpyrrolidin-1-yl)pyrimidin-4-yl]benzonitrile]

IC50 [1]: ≤ 1000 nM
Compound: Cc1ccc(-c2cc(N3CCN(c4ncccc4Cl)C[C@H]3C)nc(N3CCCC3C)n2)cc1C (stereo partly drawn) [Example 808, 4-[(2R)-4-(3-chloropyridin-2-yl)-2-methylpiperazin-1-yl]-6-(3,4-dimethylphenyl)-2-(2-methylpyrrolidin-1-yl)pyrimidine]

IC50 [2]: ≤ 1000 nM
Compound: Fc1ccc(-c2cc(N3CCN(c4ncccc4C(F)(F)F)CC3)nc(NC3CCCC3)n2)cc1Cl [Example 693, 4-(3-chloro-4-fluorophenyl)-N-cyclopentyl-6-{4-[3-(trifluoromethyl)pyridin-2-yl]piperazin-1-yl}pyrimidin-2-amine]

IC50 [1]: ≤ 1000 nM
Compound: C[C@@H]1CN(c2ncccc2Cl)CCN1c1cc(-c2cncc(C#N)c2)nc(N2CCCC2)n1 [Example 879, 5-{6-[(2R)-4-(3-chloropyridin-2-yl)-2-methylpiperazin-1-yl]-2-pyrrolidin-1-ylpyrimidin-4-yl}nicotinonitrile]

IC50 [2]: ≤ 1000 nM
Compound: Cc1cccnc1N1CCN(c2cc(-c3ccc(F)c(Cl)c3)nc(N3CCOCC3)n2)CC1=O [Example 661, 4-[6-(3-chloro-4-fluorophenyl)-2-morpholin-4-ylpyrimidin-4-yl]-1-(3-methylpyridin-2-yl)piperazin-2-one]

IC50 [1]: ≤ 1000 nM
Compound: COc1ncc(Cl)c(N2CCN(c3cc(-c4ccc(F)cc4)nc(N4CCC[C@H]4C)n3)[C@H](C)C2)n1 [Example 966, 5-chloro-4-((3R)-4-{6-(4-fluorophenyl)-2-[(2R)-2-methylpyrrolidin-1-yl]pyrimidin-4-yl}-3-methylpiperazin-1-yl)-2-methoxypyrimidine]

IC50 [2]: ≤ 1000 nM
Compound: Cc1cc(-c2cc(N3CCN(c4ncccc4C(F)(F)F)C[C@H]3C)nc(N3CCCC3)n2)ccc1F [Example 753, 4-(4-fluoro-3-methylphenyl)-6-{(2R)-2-methyl-4-[3-(trifluoromethyl)pyridin-2-yl]piperazin-1-yl}-2-pyrrolidin-1-ylpyrimidine]

IC50 [3]: ≤ 1000 nM
Compound: C[C@@H]1CN(c2ncccc2C#N)CCN1c1cc(-c2cccc(OC(F)(F)F)c2)nc(N2CCOCC2)n1 [Example 532, 2-((3R)-3-methyl-4-{2-morpholin-4-yl-6-[3-(trifluoromethoxy)phenyl]pyrimidin-4-yl}piperazin-1-yl)nicotinonitrile]

IC50 [3]: ≤ 1000 nM
Compound: Fc1ccc(F)c(-c2nc(N3CCOCC3)nc(N3CCN(c4ccccn4)CC3)n2)c1 [Example 422, 2-(2,5-difluorophenyl)-4-morpholin-4-yl-6-(4-pyridin-2-ylpiperazin-1-yl)-1,3,5-triazine]

IC50 [2]: ≤ 1000 nM
Compound: Fc1ccc(-c2cc(N3CCN(c4ncccc4C(F)(F)F)CC3)nc(N3CCCC3)n2)cc1Cl [Example 603, 4-(3-chloro-4-fluorophenyl)-2-pyrrolidin-1-yl-6-{4-[3-(trifluoromethyl)pyridin-2-yl]piperazin-1-yl}pyrimidine]

IC50 [1]: ≤ 1000 nM
Compound: CC1CCCN1c1cc(-c2ccc(F)c(Cl)c2)nc(N2CCN(c3nccnc3Cl)C[C@H]2C)n1 (stereo partly drawn) [Example 911]

IC50 [1]: ≤ 1000 nM
Compound: CN(C)CCC(O)c1nc(-c2ccc(F)c(F)c2)cc(N2CCN(c3ncccc3C(F)(F)F)CC2)n1 (stereo not drawn) [Example 893]

IC50 [1]: ≤ 1000 nM
Compound: CC1CN(c2nccnc2Cl)CCN1c1nc(-c2ccc(F)c(Cl)c2)cc(N2CCC[C@H]2C)n1 (stereo in doubt) [Example 943, 4-(3-chloro-4-fluorophenyl)-2-[(2R)-4-(3-chloropyrazin-2-yl)-2-methylpiperazin-1-yl]-6-[(2R)-2-methylpyrrolidin-1-yl]pyrimidine]

IC50 [4]: ≤ 1000 nM
Compound: C[C@H]1CN(c2nccnc2Cl)CCN1c1cc(-c2ccc(F)c(Cl)c2)nc(Cl)n1 [Example 971, 2-chloro-4-(3-chloro-4-fluorophenyl)-6-[(2S)-4-(3-chloropyrazin-2-yl)-2-methylpiperazin-1-yl]pyrimidine]

IC50 (determined as described in Example 6, class symbol): ≤ 1000 nM
Compound: Cc1cccc(-c2nc(N3CCOCC3)nc(N3CCN(c4ncccc4C(F)(F)F)CC3)n2)c1 [Example 238, 2-(3-methylphenyl)-4-morpholin-4-yl-6-{4-[3-(trifluoromethyl)pyridin-2-yl]piperazin-1-yl}-1,3,5-triazine]

IC50 [1]: ≤ 1000 nM
Compound: C[C@@H]1CN(c2ncccc2Cl)CCN1c1cc(-c2ccc(F)c(Cl)c2)nc(N2CCC[C@H]2C)n1 [Example 940, 4-(3-chloro-4-fluorophenyl)-6-[(2R)-4-(3-chloropyridin-2-yl)-2-methylpiperazin-1-yl]-2-[(2R)-2-methylpyrrolidin-1-yl]pyrimidine]

IC50 [2]: ≤ 1000 nM
Compound: CC1CCCN1c1nc(-c2ccc(F)c(Cl)c2)cc(N2CCN(c3ncccc3C(F)(F)F)C[C@H]2C)n1 (stereo partly drawn) [Example 764, 4-(3-chloro-4-fluorophenyl)-2-(2-methylpyrrolidin-1-yl)-6-{(2R)-2-methyl-4-[3-(trifluoromethyl)pyridin-2-yl]piperazin-1-yl}pyrimidine]

IC50 [3]: ≤ 1000 nM
Compound: c1ccc(N2CCN(c3nc(-c4cccc5c4oc4ccccc45)nc(N4CCOCC4)n3)CC2)nc1 [Example 432, 2-dibenzo[b,d]furan-4-yl-4-morpholin-4-yl-6-(4-pyridin-2-ylpiperazin-1-yl)-1,3,5-triazine]

IC50 [3]: ≤ 1000 nM
Compound: CCN(CC)C1CCN(c2nc(-c3ccc(F)c(Cl)c3)cc(N3CCN(c4ncccc4C(F)(F)F)CC3)n2)CC1 [Example 563, 1-(4-(3-chloro-4-fluorophenyl)-6-{4-[3-(trifluoromethyl)pyridin-2-yl]piperazin-1-yl}pyrimidin-2-yl)-N,N-diethylpiperidin-4-amine]

IC50 [1]: ≤ 1000 nM
Compound: C[C@H]1CN(c2ncccc2Cl)CCN1c1cc(-c2ccc(Cl)c(F)c2)nc(Cl)n1 [Example 953, 2-chloro-4-(4-chloro-3-fluorophenyl)-6-[(2S)-4-(3-chloropyridin-2-yl)-2-methylpiperazin-1-yl]pyrimidine]

IC50 [3]: ≤ 1000 nM
Compound: CCc1cccc(-c2cc(N3CCN(c4ncccc4C(F)(F)F)C[C@H]3C)nc(N3CCOCC3)n2)c1 [Example 516, 4-(4-(3-ethylphenyl)-6-{(2R)-2-methyl-4-[3-(trifluoromethyl)pyridin-2-yl]piperazin-1-yl}pyrimidin-2-yl)morpholine]

IC50 [4]: ≤ 1000 nM
Compound: C[C@@H]1CN(c2nccnc2Cl)CCN1c1cc(-c2ccc(F)c(Cl)c2)nc(N2CCC[C@@H]2C)n1 [Example 986, 4-(3-chloro-4-fluorophenyl)-6-[(2R)-4-(3-chloropyrazin-2-yl)-2-methylpiperazin-1-yl]-2-[(2S)-2-methylpyrrolidin-1-yl]pyrimidine]

IC50 [1]: ≤ 1000 nM
Compound: CN(C)/C=C\C(=O)c1nc(-c2ccc(F)c(F)c2)cc(N2CCN(c3ncccc3C(F)(F)F)CC2)n1 [Example 878, (2Z)-1-(4-(3,4-difluorophenyl)-6-{4-[3-(trifluoromethyl)pyridin-2-yl]piperazin-1-yl}pyrimidin-2-yl)-3-(dimethylamino)prop-2-en-1-one]

IC50 [2]: ≤ 1000 nM
Compound: C[C@@H]1CN(c2ncccc2Cl)CCN1c1cc(-c2ccc(F)c(Cl)c2)nc(N2CCOC(C)(C)C2)n1 [Example 742, 4-{4-(3-chloro-4-fluorophenyl)-6-[(2R)-4-(3-chloropyridin-2-yl)-2-methylpiperazin-1-yl]pyrimidin-2-yl}-2,2-dimethylmorpholine]
